Measurements published in patent US5585382A, “Polycyclic and heterocyclic chromophores for bis-imide tumoricidals” (The DuPont Merck Pharmaceutical Company, priority 1995, dated 1996).
Values after ≈ are worked out from the molar mass of the structure shown. Like-named read-outs stand apart in the source and are kept apart here.

Experiments:
[1] = test system: Murine leukemia L1210 cells; assay: In vitro growth inhibition of L1210 cells (MTT, 72 hr); type: cell-based; settings: Mus musculus, read-out: L1210 IC50
Procedure: (§1) The reagents for tissue culture were purchased from GIBCO (Grand Island, N.Y.). 5-Dimethylthiazol-2-yl)-2,5-diphenyl tetrazolium bromide (MTT) was purchased from Sigma Chemical Company (St. Louis, Mo.). All agents were prepared as 2 mg/ml stock solutions in DMSO. MTT was prepared as a 1 mg/ml stock solution in Dulbecco's phosphate buffered saline (PBS). All stocks were stored frozen in the dark at -20° C.
(§2) Clone A human colon cancer cells were isolated from the heterogeneous DLD-1 colon tumor line and maintained as previously described (Dexter, D. L.; Barbosa, J. A.; Calabresi, P. Cancer Research 1979, 39, 1020; Dexter, D. L.; Spremulli, E. M.; Fligiel, A.; Barbosa, J. A.; Vogel, R.; Van Vorhees, A.; Calabresi, P. Am. J. Med. 1981, 71, 949.). Murine leukemia L1210 cells were maintained in RPMI-L medium as described (Chen, S.-F.; Ruben, R. L.; Dexter, D. L. Cancer Research 1986, 46, 5014.). All cell lines were incubated at 37° C. in a humidified atmosphere of 5% CO2 -95% air.
(§3) Exponentially growing L1210 cells (1×10^3), or Clone A cells (8×10^2) in 0.1 ml medium were seeded in a 96-well microtiter plate on day 0. On day one, 0.1 ml aliquots of medium containing graded concentrations of test compounds were added to the cell plates. After incubation at 37° C. in a humidified incubator for 72 hr, the plates containing L1210 cells were centrifuged briefly and 100 μl of the growth medium was removed. Cell cultures were incubated with 50 μl of MTT for 4 h at 37° C. (12). The resulting purple formazan precipitate was solubilized with 200 μl of 0.04 N HCl in isopropyl alcohol. Absorbance was read in a Titertek Multiskan MCC scanning well spectrophotometer (Flow Laboratories) at a test wavelength of 570 nm and a reference wavelength of 630 nm. The absorbances were stored on a floppy disk on an IBM-XT and uploaded onto a VAX computer. IC50 values were determined by a computer program that fit the data to the following equation:
(§4) Y=((Am -Ao)/(1+(X/IC50)^n))+Ao
(§5) where Am =absorbance of the control cells; Ao =absorbance of the cells in the presence of highest compound concentration; Y=observed absorbance; X=compound concentration; IC50 =dose of compound that inhibits the number of population doublings of cells to one half that of the number of population doublings of the control cells; and n equals the slope of the straight portion of the curve.
(§6) The values reported in the table are from at least one experiment performed in eight replicates. If more than one experiment was performed, the number reported is the average of all the trials

[2] = test system: Clone A human colon cancer cells; assay: In vitro growth inhibition of Clone A cells (MTT, 72 hr); type: cell-based; settings: read-out: Clone A IC50
Procedure: as §1, §2, §3, §4, §5, §6

[3] = Solubility in water
[4] = test system: DLD-2 human colon tumor; assay: In vivo human tumor xenograft DLD-2 in nude mice; settings: i.v. once daily for nine days, nude mice
Text: (§7) The DLD-2 human colon tumor and MX-1 human mammary carcinoma, were originally obtained from a surgically-removed primary colon carcinoma or breast tumor respectively. The human tumor lines were maintained by serial passage in athymic nude mice. The MX-1 human mammary carcinoma is an established tumor used by the NCI. The DLD-2 human colon tumor has been well characterized. (Dexter, D. L.; Spremulli, E. N.; Matook, G. M.; Diamond, I.; Calabresi, P. Cancer Research 1982, 42, 5010; Dexter, D. L.; Barbosa, J. A.; Calabresi, P. Cancer Research 1979, 39, 1020.)
(§8) The mice used in these experiments were outbred Swiss mice or CD-1 mice bearing the nude (nu/nu) gene. On Day 0, male and female mice weighing 22-30 g are inoculated with 0.2 mL of a 25% tumor mince. This mince is prepared by mincing fresh tumor tissue, grown subcutaneously in passage mice, in sterile physiological saline. Palpable tumors weighing approximately 50 mg appear in the mice within 7-10 days after inoculation. The mice are pair matched by tumor weight and sex into groups of ten each and the test compounds and vehicle control are administered intravenously (i.v.) once daily for nine consecutive days. A >20% decrease in body weight on Day 5 following compound administration is considered an indication of toxicity. Tumor measurements and body weights are recorded once a week. Fifteen to eighteen days after the initial injection the mice are weighed, sacrificed, and the tumors excised and weighed.
(§9) The efficacy of the test compounds is determined by the extent of tumor growth inhibition in treated versus vehicle-treated control mice. Initial tumor weights (mg) are calculated from the tumor dimensions (mm) obtained from caliper measurements, using the formula for a prolate ellipsoid (mg of tumor weight=(length×width^2)/2). Net tumor weights are calculated for each of the treated groups and the vehicle-treated control group by subtracting the initial tumor weight from the final tumor weight (Day 15-18). Results are expressed as a percentage decrease relative to the mean tumor weight for the control vehicle-treated group.
(§10) Tumor Growth Inhibition= [formula]
(§11) The evaluation criteria of the National Cancer Institute for activity in in vivo cancer models were used. Tumor growth inhibition of 58-89% against the various xenografts is considered moderate activity, and inhibition of ≥90% is considered good to excellent activity. Actual tumor regressions (IR=incomplete regression; FR=full regression) indicate excellent to outstanding activity.

[5] = test system: MX-1 human mammary carcinoma; assay: In vivo human tumor xenograft MX-1 in nude mice; settings: for Tumor Growth Inhibition activity against MX-1 (in words): NCI criteria
Text: as §7, §8, §9, §10, §11

[6] = Mus musculus, iv, 216 h, read-out: MX-1 tumor regressions, IR=incomplete regression
[7] = i.v. once daily for nine days, nude mice
[8] = Mus musculus, iv, 216 h, read-out: MX-1 percent tumor growth inhibition
[9] = Mus musculus, iv, 216 h, i.v. once daily for nine days, nude mice, read-out: MX-1 percent tumor growth inhibition

Compound	IC50 ([1]; L1210 cells, 72 hr, MTT) [µg/mL]	IC50 ([2]; Clone A cells, 72 hr, MTT) [µg/mL]	solubility [3] [µg/mL]	IC50 ([1]; L1210, 72 h) [µg/mL]	IC50 ([2]; 72 h) [µg/mL]	Tumor Growth Inhibition activity against MX-1 (in words) [5, 7]	other results
O=C1c2cc([N+](=O)[O-])cc3c2c(cc2cccnc23)C(=O)N1CCNCCN1C(=O)c2cc([N+](=O)[O-])cc3c2c(cc2cccnc23)C1=O [Example 2, 2-[3-(3-Nitro-5-azaphenanthrene-1,10-dicarboximido)ethylamino]-1-(3-nitro-5-azaphenanthrene-1, 10-dicarboximido)ethane Hydromethanesulfonate]	0.02	0.044	10	–	–	–	inhibition in vivo at 12.5 mg/kg ([4]; Mus musculus, DLD2, iv, 216 h, 12.5 mg/kg, read-out: DLD-2 percent tumor growth inhibition): 0%
CS(=O)(=O)O.CS(=O)(=O)O.Cc1cnc2c(c1)cc1c3c(cc([N+](=O)[O-])cc32)C(=O)N([C@H](C)CNCCNC[C@@H](C)N2C(=O)c3cccc4cc([N+](=O)[O-])cc(c34)C2=O)C1=O [Example 117, (R,R)-1-[2-(3-Nitro-7-methyl-5-azaphenanthrene-1, 10-dicarboximido)propylamino]-2-[2-(3-nitronaphthalene-1,8-dicarboximido)propylamino]ethane Dihydromethanesulfonate]	–	–	8700	0.036	0.002	moderate to excellent	responders at 6 mg/kg [5, 6]: 100%
CS(=O)(=O)O.O=C1c2cccc3c2c(cc2ncccc23)C(=O)N1CCCCNCCCN1C(=O)c2cccc3c2c(cc2ncccc23)C1=O [Example 17, 4-[3-(8-Azaphenanthrene-1,10-dicarboximido)propylamino]-1-(8-azaphenanthrene-1,10-dicarboximido) butane Hydromethanesulfonate]	0.001	0.001	–	–	–	–	inhibition in vivo at 6.2 mg/kg ([4]; Mus musculus, DLD2, iv, 216 h, 6.2 mg/kg, read-out: DLD-2 percent tumor growth inhibition): 59%; Tumor Growth Inhibition activity against DLD-2 (in words) ([4]; NCI criteria): moderate to excellent
Cc1cnc2c(c1)cc1c3c(cc([N+](=O)[O-])cc32)C(=O)N(C[C@H](C)NCCN[C@@H](C)CN2C(=O)c3cc([N+](=O)[O-])cc4c3c(cc3cc(C)cnc34)C2=O)C1=O [Example 26]	–	–	–	0.018 (≈ 0.0238 µM)	0.012 (≈ 0.0159 µM)	–	inhibition in vivo at 6.2 mg/kg [5, 8]: 22%
Cc1cnc2c(c1)cc1c3c(cc([N+](=O)[O-])cc32)C(=O)N(CCNCCNCCN2C(=O)c3cc([N+](=O)[O-])cc4c3c(cc3cc(C)cnc34)C2=O)C1=O [Example 23]	0.042 (≈ 0.0578 µM)	0.043 (≈ 0.0592 µM)	120 (≈ 165 µM)	–	–	–	inhibition in vivo at 25 mg/kg [5, 9]: 0%
CS(=O)(=O)O.CS(=O)(=O)O.C[C@@H](CN1C(=O)c2cc([N+](=O)[O-])cc3c2c(cc2cccnc23)C1=O)NCCN[C@@H](C)CN1C(=O)c2cc([N+](=O)[O-])cc3c2c(cc2cccnc23)C1=O [Example 20, (S,S)-1,2-bis-[2-(3-Nitro-5-azaphenanthrene-1, 10-dicarboximido)-1-methylethylamino]ethane Dihydromethanesulfonate]	–	–	3330	0.012	–	moderate to excellent	inhibition in vivo at 6.2 mg/kg [5, 8]: 95%; responders at 6.2 mg/kg [5, 6]: 11.1%
CS(=O)(=O)O.CS(=O)(=O)O.O=C1c2cc([N+](=O)[O-])cc3c2c(cc2cccnc23)C(=O)N1CCNCCNCCN1C(=O)c2cc([N+](=O)[O-])cc3c2c(cc2cccnc23)C1=O [Example 6, 1,2-bis-[2-(3-Nitro-5-azaphenanthrene-1,10-dicarboximido)ethylamino]ethane Dihydromethanesulfonate]	–	–	330	0.041	0.005	moderate to excellent	inhibition in vivo at 12.5 mg/kg [5, 8]: 81%
Cc1cnc2c(c1)cc1c3c(cc([N+](=O)[O-])cc32)C(=O)N(CCCNCCN2C(=O)c3cc([N+](=O)[O-])cc4c3c(cc3cc(C)cnc34)C2=O)C1=O [Example 22]	0.02 (≈ 0.0287 µM)	0.003 (≈ 0.0043 µM)	30 (≈ 43 µM)	–	–	–	inhibition in vivo at 25 mg/kg [5, 9]: 0%
CS(=O)(=O)O.O=C1c2cccc3c2c(cc2cccnc23)C(=O)N1CCCCNCCCN1C(=O)c2cccc3c2c(cc2cccnc23)C1=O [Example 1, 4-[3-(5-Azaphenanthrene-1,10-dicarboximido)propylamino]-1-(5-azaphenanthrene-1,10-dicarboximido) butane Hydromethanesulfonate]	0.134	0.06	2300	–	–	–	inhibition in vivo at 25 mg/kg ([4]; Mus musculus, DLD2, iv, 216 h, 25 mg/kg, read-out: DLD-2 percent tumor growth inhibition): 16%
CS(=O)(=O)O.O=C1c2ccccc2C(=O)c2c1cc1c3c(cccc23)C(=O)N(CCCCNCCCN2C(=O)c3cccc4c5c(cc(c34)C2=O)C(=O)c2ccccc2C5=O)C1=O [Example 100, 4-[3-(7,12-Dihydro-7,12-dioxobenz[a]anthracene-4,5-dicarboximido)propylamino]-1-(7,12-dihydro-7,12-dioxobenz[a]anthracene-4,5-dicarboximido)butane Hydromethanesulfonate]	0.014	0.07	160	–	–	–	inhibition in vivo at 20 mg/kg ([5]; Mus musculus, iv, 216 h, 20 mg/kg, i.v. once daily for nine days, nude mice, read-out: MX-1 percent tumor growth inhibition): 24%
CS(=O)(=O)O.Cc1nc2cc3c4c(cccc4c2s1)C(=O)N(CCCCNCCCN1C(=O)c2cccc4c2c(cc2nc(C)sc24)C1=O)C3=O [Example 82, 4-[3-(2-Methylnaphtho[2,1-d]thiazole-5,6-dicarboximido)propylamino]-1-(2-methylnaphtho[2,1-d]thiazole-5,6-dicarboximido)butane Hydromethanesulfonate]	0.082	0.068	4500	–	–	–	–
CC[C@H](CNCCNC[C@@H](CC)N1C(=O)c2cc([N+](=O)[O-])cc3c2c(cc2cc(C)cnc23)C1=O)N1C(=O)c2cc([N+](=O)[O-])cc3c2c(cc2cc(C)cnc23)C1=O [Example 24]	0.13 (≈ 0.166 µM)	0.022 (≈ 0.0281 µM)	150 (≈ 192 µM)	–	–	–	–
CS(=O)(=O)O.CS(=O)(=O)O.O=C1c2cc([N+](=O)[O-])cc3c2c(cc2ncccc23)C(=O)N1CCNCCNCCN1C(=O)c2cc([N+](=O)[O-])cc3c2c(cc2ncccc23)C1=O [Example 19, 1,2-bis-[2-(3-Nitro-8-azaphenanthrene-1,10-dicarboximido)ethylamino]ethane Dihydromethanesulfonate]	–	–	950	0.013	0.009	moderate to excellent	inhibition in vivo at 6 mg/kg [5, 8]: 84%
